{"source": "patent US20160151377A1", "about": "“USE OF SIGMA RECEPTOR LIGANDS FOR THE PREVENTION AND TREATMENT OF PAIN ASSOCIATED TO INTERSTITIAL CYSTITIS/BLADDER PAIN SYNDROME (IC/BPS)” (LABORATORIOS DEL DR. ESTEVE S.A., priority 2013, published 2016)", "key": {"σ1 receptors": {"system": "σ1 receptors", "settings": "cited from earlier work; for affinity for σ1 receptors relative to haloperidol: rodent brain membranes and human neuroblastoma cells"}, "D2 receptors": {"system": "D2 receptors", "settings": "compared with haloperidol; cited from earlier work"}, "sigma receptor": {"system": "sigma receptor", "settings": "cited from earlier work"}, "[1]": {"system": "cyclophosphamide-induced cystitis", "assay_type": "in vivo, mice", "protocol": "(§1) Testing took place during the light phase (from 9.00 h to 15.00 h)."}, "sigma-1 receptors": {"system": "sigma-1 receptors", "settings": "both in experimental animals and human cells; cited from earlier work"}, "[2]": {"system": "cyclophosphamide-induced cystitis", "settings": "cyclophosphamide 300 mg/kg i.p., WT mice", "protocol": "as §1"}}}
{"compound": "OC1(c2ccc(Cl)cc2)CCNCC1", "note": "[metabolite I, 4-(4-chlorophenyl)-4-hydroxypiperidine]", "values": [{"measurement": "affinity for σ1 receptors relative to haloperidol", "setting": "σ1 receptors", "value": "less affinity than haloperidol"}, {"measurement": "affinity for D2 receptors", "setting": "D2 receptors", "value": "no affinity"}]}
{"compound": "CC(C)=CCN1CCC2(C)c3cc(O)ccc3CC1C2C", "note": "(stereo not shown) [pentazocine]", "values": [{"measurement": "affinity of sigma receptors for analgesics", "setting": "sigma receptor", "value": "very high affinity"}]}
{"compound": "CN1CC[C@]23c4c5ccc(O)c4O[C@H]2[C@@H](O)C=C[C@H]3[C@H]1C5.Cl", "note": "[morphine, Morphine hydrochloride]", "values": [{"measurement": "50% mechanical threshold, referred mechanical hyperalgesia", "setting": "[1]; mouse, in vivo", "value": "increase the mechanical threshold to above the control value"}]}
{"compound": "OC(CCCN1CCC(O)(c2ccc(Cl)cc2)CC1)c1ccc(F)cc1", "note": "(stereo not shown) [metabolite II, 4-(4-chlorophenyl)-[…]-(4-fluorophenyl)-4-hydroxy-1-piperidinebutanol]", "values": [{"measurement": "blockade of sigma-1 receptors", "setting": "sigma-1 receptors", "value": "irreversible blockade"}, {"measurement": "affinity for sigma-1 receptors", "setting": "σ1 receptors", "value": "high affinity (in the low nanomolar range)"}, {"measurement": "affinity for σ1 receptors relative to haloperidol", "setting": "σ1 receptors", "value": "less affinity than haloperidol"}, {"measurement": "affinity for D2 receptors", "setting": "D2 receptors", "value": "much lower"}]}
{"compound": "O=P1(N(CCCl)CCCl)NCCCO1", "note": "(stereo not shown) [cyclophosphamide]", "values": [{"measurement": "mechanical threshold for referred hyperalgesia", "setting": "[1]; cyclophosphamide 100 mg/kg i.p., WT and σ1-KO mice", "value": "maximum reduction in the mechanical threshold"}, {"measurement": "pain score (pain-related behaviors)", "setting": "[2]", "value": "maximum pain score"}]}
